Measured values published in US7666845B2, “Compounds having inhibitory activity against sodium-dependent glucose transporter” (Janssen Pharmaceutica N.V., priority 2006, dated 2010).

Target: T1, human SGLT2 (Homo sapiens, UniProt P31639)
T1 construct: expressed in transfected cells; host or cells: CHOK1 (Chinese hamster ovary) cells under Geneticin selection
T1 sequence (P31639 1-672): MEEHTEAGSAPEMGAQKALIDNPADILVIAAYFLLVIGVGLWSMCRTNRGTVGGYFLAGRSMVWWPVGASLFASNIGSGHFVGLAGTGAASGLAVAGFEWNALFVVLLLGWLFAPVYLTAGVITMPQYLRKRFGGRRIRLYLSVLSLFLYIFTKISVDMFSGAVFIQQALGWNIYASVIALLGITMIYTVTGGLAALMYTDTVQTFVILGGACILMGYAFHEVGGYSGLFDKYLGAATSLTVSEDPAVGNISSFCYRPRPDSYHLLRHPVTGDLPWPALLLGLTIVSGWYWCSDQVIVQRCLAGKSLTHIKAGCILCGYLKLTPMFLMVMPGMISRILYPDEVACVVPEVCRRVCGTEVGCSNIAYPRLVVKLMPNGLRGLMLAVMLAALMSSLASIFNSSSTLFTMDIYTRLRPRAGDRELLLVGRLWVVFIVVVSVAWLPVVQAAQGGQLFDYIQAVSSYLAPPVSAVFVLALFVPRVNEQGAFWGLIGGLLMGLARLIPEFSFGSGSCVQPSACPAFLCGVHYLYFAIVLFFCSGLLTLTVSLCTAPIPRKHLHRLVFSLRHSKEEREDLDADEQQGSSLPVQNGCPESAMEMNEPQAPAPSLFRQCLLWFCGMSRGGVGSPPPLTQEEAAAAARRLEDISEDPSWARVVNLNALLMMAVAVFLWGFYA
Assay: 14C-AMG uptake in CHOK1 cells expressing human SGLT2
Assay type: cell-based
Conditions: 14C-AMG 0.5 mM, 2 hours at 37° C., read-out: Human SGLT2 inhibition IC50
Protocol: CHOK1 cells expressing human SGLT2 were seeded in 96-well white walled plates at a density of 50,000 cells/well in F-12 nutrient mixture (Ham's F-12) containing 10% fetal bovine serum, 400 μg/ml Geneticin, 50 units/ml sodium penicillin G (Gibco-BRL) and 50 μg/ml streptomycin sulfate. After 2 days of culture at 37° C. in a humidified atmosphere containing 5% CO2, cells were washed once with the assay buffer (137 mM NaCl, 5 mM KCl, 1 mM CaCl2, 1 mM MgCl2, 50 mM Hepes, and 20 mM Tris, pH 7.4) and incubated with 80 μl of the buffer containing test compounds for 10 min at 37° C. Test compounds were dissolved in DMSO. The final concentration of DMSO was 0.5%. The transport reaction was initiated by addition of 20 μl [^14C]-methyl-α-D-glucopyranoside (^14C-AMG, 0.08 uCi per well) solution (final concentration, 0.5 mM). After incubation for 2 hours at 37° C., the uptake was stopped by aspiration of the incubation mixture, the cells were washed three times with ice-cold PBS. Then, cells were solubilized with 0.3 N NaOH and scintalin was added for determination of radioactivity by a liquid scintillation counter. Nonspecific AMG uptake was defined as that which occurred in the presence of 100 μM of phlorizin, a specific inhibitor of sodium-dependent glucose cotransporter. Specific uptake was normalized for the protein concentrations measured by the method of Bradford. […]

IC50: 1100 nM
Structure (SMILES): Cc1ccc(C2OC(C(=O)O)C(O)C(O)C2O)cc1Cc1ccc(-c2ccc(F)cc2)s1 (stereo not shown) [Compound 1, 6-{3-[5-(4-Fluoro-phenyl)-thiophen-2-ylmethyl]-4-methyl-phenyl}-3,4,5-trihydroxy-tetrahydro-pyran-2-carboxylic acid]
